In PubChem BioAssay (NCI) one finds GI50 and TGI data, which are given here for 21 molecules.

The structures appear in SMILES notation. Several values for one entry are separate records, joined by “and”; a condition that tells them apart may be missing. Equal entries are not always repeated.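 Interpolation was linear, between the two tested concentrations surrounding the appropriate level; five concentrations were tested over 48 hours in 96-well plates. GI50 is the concentration that inhibits growth by half. TGI: total growth inhibition.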

Holding throughout (experiment): DTP human tumour cell line panel, 48 h
Assay [1] has as its system NCI-H226 lung.
Assay [2] has as its system RPMI-8226 leukemia.
Assay [3] relates to UACC-62 melanoma.
Assay [4] has as its system EKVX NSCLC.
The subject of assay [5] is K-562 leukemia.
The test system of assay [6] is OVCAR-4 ovarian.
The test system of assay [7] is MDA-MB-231 breast.
For assay [8], the system named is SF-268 CNS.
For assay [9], the system named is SN12C renal.
Assay [10] concerns 786-0 renal.
The subject of assay [11] is SF-295 CNS.
For assay [12], the system named is SNB-75 CNS.
Assay [13] has as its system HL-60(TB) leukemia.

The term GI50 denotes the concentration giving 50% growth inhibition. In general, TGI refers to the concentration at which net growth stops. A lower TGI goes with greater sensitivity of the cells. For the molecule `N#Cc1c(-c2ccccc2)cc(-c2ccccc2)n(C2OC(CO)C(O)C(O)C2O)c1=S` (stereo unspecified), the GI50 was 22.3 µM and 69.8 µM in assay [1]; 15.9 µM and 35.5 µM in assay [3]; 13.7 µM and 29.4 µM in assay [5]; 37.1 µM and > 100 µM in [6]; 7.15 µM and 23.9 µM in assay [7]; 36.8 µM and 84.1 µM in assay [9]. For the same molecule, the GI50 in assay [11] was 19.5 µM and 41.1 µM. In addition, the TGI was 49.1 µM and > 100 µM in assay [1]; 56.3 µM and > 100 µM in assay [2]; 33.9 µM and > 100 µM in assay [3]; > 100 µM in assay [4]; 41.4 µM and > 100 µM in [5]; > 100 µM in [6]. For the same molecule, the TGI in assay [7] is 31.1 µM and 83 µM; in assay [8], > 100 µM; in assay [9], > 100 µM; in assay [10] it was > 100 µM; in [11] it was 44.4 µM and > 100 µM; in [12], > 100 µM. In assay [13], the TGI was > 100 µM.
In the case of `C=CCN1C(=O)/C(=C/c2ccco2)N=C1SC/C=C/C`, the TGI was > 100 µM in assay [1]; 76.6 µM in assay [2]; 73.7 µM in [3]; > 100 µM in [4]; > 100 µM in [5]; > 100 µM in assay [6]. For the same molecule, the TGI in assay [7], in assay [8], in assay [9], in assay [10], in assay [11] and in assay [12] was > 100 µM throughout. Besides, the TGI in assay [13] worked out at 76 µM.
As for `O=C1/C(=C\c2ccc(O)cc2)CCC/C1=C/c1ccc(Cl)c(Cl)c1`, the TGI stood at 15.5 µM in assay [1]; 5.76 µM in assay [2]; 5.24 µM in [3]; 20 µM in assay [4]; 11.9 µM in assay [5]; 5.93 µM in [6]. In addition, the TGI was 7.55 µM in [7]; 11.9 µM in assay [8]; 10.4 µM in assay [9]; 6.05 µM in assay [10]; 10.1 µM in assay [11]; 11.8 µM in assay [12]. In addition, in [13], the TGI was 4.94 µM.
On to `C1=NCCN2CCN(CCN=Cc3ccc(cc3)OCc3cccc(n3)COc3ccc1cc3)CC2`, for which the TGI in [1], in assay [2], in [3], in assay [4], in [5] and in assay [6] was > 50 µM each time. Also, the TGI in assay [7], in assay [8], in assay [9], in assay [10], in assay [11] and in assay [12] was > 50 µM in each case. In assay [13], the TGI was > 50 µM.
With `Cc1csc2c(=O)n(C3OC(CO)C(O)C3O)c(=O)[nH]c12` (stereo unspecified), the TGI in [1], in assay [2], in assay [4], in assay [5], in assay [6] and in [7] was > 100 µM in each case. The TGI in [8], in [9], in [10], in assay [11], in assay [12] and in assay [13] was > 100 µM throughout.
With `Cn1c2ccccc2c2c(-c3ccccc3)cc3c(c21)C(=O)C=CC3=O`, the TGI is 5.04 µM in assay [1]; 4.8 µM in assay [2]; 2.64 µM in assay [3]; > 8.39 µM in assay [4]; > 3.46 µM in assay [5]; 5.75 µM in assay [6]. Also, the TGI is 5.72 µM in assay [7]; > 9.19 µM in assay [8]; 5.76 µM in assay [9]; 2.99 µM in [10]; > 10 µM in assay [11]; > 9.66 µM in assay [12]. For the same molecule, the TGI in [13] amounted to 1.1 µM.
With `COC(=O)c1ccc(C)cc1CC1Cc2cc(C)ccc2C1=O` (stereo unspecified), the TGI in assay [1], in [2], in assay [3], in [4], in [5] and in [6] was > 100 µM each time. Also, the TGI in [7], in assay [8], in [9], in assay [10], in assay [11] and in assay [12] was > 100 µM each time. For the same molecule, the TGI in assay [13] is > 100 µM.
Consider `O=C1/C(=C/c2cccc(F)c2)CCCc2ccccc21`, for which the TGI was found to be 27.7 µM in assay [1]; 53.7 µM in [2]; 28.6 µM in assay [3]; 28.6 µM in assay [4]; 32.1 µM in assay [5]; 31.8 µM in assay [6]. The total growth inhibition concentration (TGI) in assay [7] was found to be 32.5 µM; in [8] it was 28.1 µM; in [9], 31.8 µM; in [10], 30.9 µM; in assay [11], 29.7 µM; in assay [12], 41.3 µM. This molecule also returned a TGI in assay [13] of 62.9 µM.
As for `C=CCNC(=O)NC(=O)CSC1=NNC2(C(=O)N1)c1ccccc1-c1ccccc12`, the TGI in [1], in assay [2], in assay [3], in [4], in assay [5] and in [6] was > 10 µM throughout. Besides, the TGI in assay [7], in [8], in assay [9], in assay [10], in [11] and in assay [12] was > 10 µM in each case. Further, the TGI in assay [13] is > 10 µM.
As to `COC(=O)[C@@H]1CN(C(C)=O)C(=O)N1`, the TGI in assay [1], in assay [2], in assay [3], in [4], in [5] and in assay [6] was > 100 µM each time. For the same molecule, the TGI in [7], in assay [8], in assay [9], in assay [10], in assay [11] and in assay [12] was > 100 µM in each case. Further, the TGI in [13] was > 100 µM.
For the molecule `CCOc1cc(NC(C)=O)ccc1C(=O)NN1C(=O)C(Cl)C1c1ccccc1` (stereo unspecified), the TGI stood at 46.3 µM in [1]; 28.7 µM in [2]; 23.3 µM in [3]; 28.7 µM in [4]; 23.9 µM in assay [5]; 32.7 µM in [6]. The TGI in assay [7] is 26.7 µM; in assay [8] it was 43.8 µM; in assay [9], 36.5 µM; in [10], 28.1 µM; in assay [11], 37.1 µM; in [12] it was 29.7 µM. In [13], this molecule had a TGI of 36.1 µM.
In the case of `CCOC(=O)P(=O)(O)c1ccc(N(C)Cc2ccccc2)cc1`, the TGI in assay [1], in [2], in assay [3], in [4], in [5] and in [6] was > 100 µM throughout. For the same molecule, the concentration for total growth inhibition (TGI) in assay [7], in assay [8], in assay [9], in assay [10], in [11] and in [12] was > 100 µM throughout. Further, the TGI in assay [13] is > 100 µM.
For `CCOP(=O)(OCC)/C(C#N)=C/c1ncc[nH]1`, the TGI in assay [1], in assay [2], in assay [3], in assay [4], in assay [5] and in assay [6] was > 100 µM each time. The TGI in [7], in [8], in assay [9], in assay [10], in assay [11] and in [12] was > 100 µM throughout. The TGI in assay [13] is > 100 µM.
With `O=C1CCC2C(O)c3cc4c(cc3C(c3ccc5c(c3)OCO5)N12)OCO4` (stereo unspecified), the TGI in assay [1], in [2], in assay [3], in assay [4], in [5] and in assay [6] was > 100 µM each time. Also, the concentration for total growth inhibition (TGI) in [7] is > 100 µM; in assay [8], 52.5 µM; in assay [9] it was > 100 µM; in assay [10], > 100 µM; in [11] it was > 100 µM; in assay [12], 41.5 µM. Besides, in assay [13], the TGI was > 100 µM.
As to `CCc1c2c([nH]c(=S)c1C#N)CCC2`, the TGI in assay [1] was > 100 µM; in assay [2], > 100 µM; in assay [3], > 100 µM; in assay [4] it was 75.6 µM; in assay [5], > 100 µM; in [6], > 100 µM. Moreover, the TGI in assay [7], in assay [8], in assay [10], in assay [11], in assay [12] and in assay [13] was > 100 µM each time.
As for `CCOC(CN(C)C(=O)Nc1cccc2ccccc12)OCC`, the TGI in assay [1], in [2], in assay [3], in assay [4], in assay [5] and in assay [6] was > 10 µM throughout. Further, the TGI in assay [7], in assay [8], in [9], in assay [10], in assay [11] and in assay [12] was > 10 µM in each case. For the same molecule, the TGI in assay [13] is > 10 µM.
As to `Cc1cc2c(cc1-c1cc3c(cc1C)C(C(C)C)=C(O)C(=O)/C3=C\Nc1c3ccccc3nc3ccccc13)/C(=C/Nc1c3ccccc3nc3ccccc13)C(=O)C(O)=C2C(C)C`, the TGI in assay [1] was 5.53 µM; in assay [2], > 100 µM; in [3], 14.6 µM; in [4] it was 5.67 µM; in [6] it was 12.8 µM; in assay [7] it was 19 µM. The TGI amounted to 14.7 µM in [8]; 22 µM in [9]; 14.8 µM in assay [10]; 12.9 µM in assay [11]; 13 µM in [12]; 11.2 µM in assay [13].
In the case of `COc1cc(O)c2c(=O)cc(-c3ccc(O)cc3O)oc2c1CC=C(C)C`, the TGI in assay [1] was 38 µM; in assay [2], > 100 µM; in assay [3], 39.3 µM; in assay [4], 73.6 µM; in assay [5], > 100 µM; in [6], 28.5 µM. The TGI in assay [7] was 54.1 µM; in assay [8] it was 63.4 µM; in assay [9], 31.5 µM; in assay [10] it was > 100 µM; in assay [11] it was 30.2 µM; in assay [12] it was 46.1 µM. This molecule also returned a TGI in [13] of 34.4 µM.
For the molecule `CNC1=C(C)C(=O)C(=O)C([C@H](C)CCC=C(C)C)=C1O`, the TGI in assay [1] is > 72.9 µM; in assay [2] it was > 94.3 µM; in assay [3] it was > 72.3 µM; in assay [4], > 100 µM; in assay [5] it was > 100 µM; in [6] it was > 77 µM. Further, the TGI was > 100 µM in assay [7]; > 100 µM in assay [8]; > 100 µM in assay [9]; > 95.3 µM in assay [10]; > 75.7 µM in assay [11]; > 94.4 µM in assay [12]. Also, the TGI in assay [13] turned out to be 6.88 µM.
With `CS(=O)(=O)c1nc(-c2cc3c(c(S(C)(=O)=O)n2)CCC3)cc2c1CCCCC2`, the TGI in assay [1] was > 100 µM; in [2] it was > 100 µM; in [3], 80 µM; in [4], > 100 µM; in assay [5], > 100 µM; in assay [6], > 100 µM. Moreover, the TGI is > 100 µM in assay [7]; 92.2 µM in [8]; > 100 µM in assay [9]; > 100 µM in assay [10]; > 100 µM in [11]; 24.7 µM in [12]. Moreover, the TGI in assay [13] was > 100 µM.
Consider `O=C1C(Cl)C2(CC(/C=C/c3ccccc3Cl)=NN2c2cccc(S(=O)(=O)O)c2)N1c1nc2ccccc2s1` (stereo unspecified), for which the TGI in assay [1] was > 100 µM; in [2] it was 89.9 µM; in assay [3] it was > 100 µM; in [4] it was > 100 µM; in assay [5], > 100 µM; in [6], > 100 µM. Besides, the TGI in assay [7] is > 100 µM; in assay [8], > 100 µM; in assay [9], > 100 µM; in assay [10], 62.3 µM; in [12] it was > 100 µM; in assay [13], > 100 µM.
